Reference: patent EP0026867A1, “Peptidylphosphonic acids, their preparation and use, and pharmaceutical preparations containing them” (F. HOFFMANN-LA ROCHE & CO. Aktiengesellschaft, priority 1979, dated 1981)
≈ marks a conversion by molar mass, not a printed value.

Tests used:
Test in all cases: in vitro antibacterial test (M.I.C.)
Assay type in all cases: cell-based
S. albus = conditions: Staphylococcus albus
Source text: (§1) Die folgende Tabelle gibt die Resultate von in vitro Versuchen unter Verwendung von (1R)-1-(L-Pyroglutamyl-L-norvalyl-L-norvalylamirio)-ethylphosphonsäure gegen einige repräsentative pathogene Mikroorganismen wieder.

Shigella spp. = tested on: Shigella spp.
Source text: as §1

S. faecalis = conditions: Enterococcus faecalis
Source text: as §1

Klebsiella spp. = tested on: Klebsiella spp.
Source text: as §1

H. influenzae = conditions: Haemophilus influenzae
Source text: as §1

S. marcescens = conditions: Serratia marcescens
Source text: as §1

Salmonella spp. = tested on: Salmonella spp.
Source text: as §1

S. pneumoniae = conditions: Streptococcus pneumoniae
Source text: as §1

E. coli = conditions: Escherichia coli
Source text: as §1

S. pyogenes = conditions: Streptococcus pyogenes
Source text: as §1

CCC[C@H](NC(=O)[C@@H]1CCC(=O)N1)C(=O)N[C@@H](CCC)C(=O)N[C@@H](C)P(=O)(O)O [Beispiel 1, (1R)-1-(L-Pyroglutamyl-L-norvalyl-L-norvalylamino)-ethylphosphonsäure]
MIC (S. albus): 16 µg/mL (≈ 36.8 µM) | MIC (Shigella spp.): 1.1 µg/mL (≈ 2.53 µM) | MIC (S. faecalis): 0.05 µg/mL (≈ 0.115 µM) | MIC (Klebsiella spp.): 16 µg/mL (≈ 36.8 µM) | MIC (H. influenzae): 0.2 µg/mL (≈ 0.46 µM) | MIC (S. marcescens): 30 µg/mL (≈ 69.1 µM) | MIC (Salmonella spp.): 20 µg/mL (≈ 46 µM) | MIC (S. pneumoniae): 2.4 µg/mL (≈ 5.52 µM) | MIC (E. coli): 0.25 µg/mL (≈ 0.575 µM) | MIC (S. pyogenes): 16 µg/mL (≈ 36.8 µM)
